Source: patent US20220193047A1, “METHODS OF ENHANCING RADIOTHERAPY USING FERROPTOSIS INDUCERS AS RADIOSENSITIZERS” (THE TRUSTEES OF COLUMBIA UNIVERSITY IN THE CITY OF NEW YORK, priority 2019, published 2022)

Columns and labels:
Assay type in all cases: cell-based
SK-LMS-1 cells = experiment: Clonogenic assay with radiation, SK-LMS-1
Protocol: (§1) 500 cells were seeded per well in 6-well plates in their respective growth media and incubated overnight. The next day, cells were co-treated with DMSO or compounds and radiation using a Gammacell 40 Caesium-137 irradiator (Theratronics). Plates were monitored every day using a light microscope for formation of colonies in the DMSO-treated wells. When colonies of >50 cells are clearly visible, the growth medium was discarded from all plates. The cells were washed with PBS, then fixed and stained with crystal violet solution (0.05% crystal violet, 1% formaldehyde, 1% methanol in PBS). Colonies were then directly visualized and counted.
(§2) The coefficient of drug interaction (CDI), used to compute interaction between two drugs, was used to quantify synergy between cell death inducers and radiation according to the formula CDI=AB/(A×B), where AB is the surviving fraction of the combination treatment, and A and B are the surviving fractions of the individual treatments. […]
(§3) It was then tested whether cell death enhancement of radiation with ferroptosis inducers occurred across diverse tumor cell types. […] In addition to the initial ferroptosis-sensitive HT-1080 sarcoma cell line, glioma and lung cancer cells were evaluated, due to the clinical relevance of radiation therapy for the treatment of these tumor types. […]

U87 cells = experiment: Clonogenic assay with radiation, U87
Protocol: as §1, §2, §3

PC9 cells = experiment: Clonogenic assay with radiation, PC9
Protocol: as §1, §2, §3

malondialdehyde (MDA) = experiment: TBARS assay of MDA levels; settings: HT-1080, 24 h; 1 μM IKE or 10 μM ferrostatin-1, with or without 6 Gy radiation
Protocol: 2 million cells were seeded in T175 flasks. […] The whole lysate was used to determine MDA concentration in each sample. We used the TBARS assay kit (Cayman Chemical) and followed the product instructions.
Next, levels of malondialdehyde (MDA), a biomarker for lipid peroxidation and ferroptosis, were quantified using an assay that measures thiobarbituric acid reactive substances (TBARS) (Gaschler et al., 2018). In this assay, thiobarbituric acid (TBA) was added to cell lysates and heated under acidic conditions to form the MDA-TBA adduct, which was measured colorimetrically.

cleaved caspase-3 = experiment: Western blot of cleaved caspase-3; settings: for Cleaved caspase-3, added to radiation: HT-1080, 6 Gy, 24 h; for Cleavage of caspase-3, compound alone: HT-1080, IKE or RSL3 24 h, staurosporine 500 nM for 6 h
Protocol: 1 million cells were seeded in 10 cm dishes and treated with compounds and/or radiation on the next day. […] After quantification by Bradford, samples were mixed with 5×SDS loading buffer and separated by SDS-polyacrylamide gel electrophoresis. After transfer, membranes were blocked for 10 min in Tris-buffered saline (pH 7.4) with 1% Tween-20 (TBS-T) with 5% milk and incubated in primary antibody overnight at 4° C. Following 3× for 5 min washes in TBS-T, the membrane was incubated with secondary antibodies for 1 hr. The membrane was washed again in TBST 3× for 5 min prior to visualization using enhanced chemiluminescence (ECL Western Blotting Substrate, Pierce). Antibody for cleaved caspase 3 (Cell Signaling Technology, #9661) was used at 1:1000 and detected using a Peroxidase AffiniPure Goat Anti-Rabbit IgG (H+L) (Jackson ImmunoResearch, 111-295-144) at 1:5000 dilution.
DNA damage is a potent inducer of apoptosis. […] Despite this, some quantity of 17-kDa cleaved caspase-3 was still detectable in the Z-VAD-FMK-treated sample. To further check for potential radiation-induced apoptosis in this model at a later time point, we attempted to rescue the effects of radiation using 100 μM Z-VAD-FMK after 48, 72, and 96 h (FIG. 10).

[1] = tested on: human glioma slice cultures; experiment: Human glioma organotypic slice cultures, H2DCFDA ROS by flow cytometry
Protocol: Human surgical specimens were collected from Columbia University Medical Center operating theaters in accordance with Institutional Review Board protocols. Surgical specimens were deidentified, placed in a sterile 50 mL conical tube containing ice-cold sucrose solution (210 mM sucrose, 10 mM glucose, 2.5 mM KCl, 1.25 mM NaH2PO4, 0.5 mM CaCl2), 7 mM MgCl2 and 26 mM NaHCO3). Tissue specimens were let rest in the sucrose solution for 20 minutes. Tissue specimens were then cut into 300 μm sections using a Mcllwain Tissue Chopper. Sections after cutting were let rest in the sucrose solution for 20 minutes. Then the tissue sections were transferred onto Millicell cell culture inserts ([…], 30 mm diameter) and placed in 6-well plates containing 1.5 mL of media. The media consisted of DMEM/F12 plus N−2 Supplement. […]
To further study the potential of combining small-molecule ferroptosis inducers and radiation for human therapeutic use, ex vivo samples of human glioma, which have been immediately cut from freshly resected tumors and grown as organotypic slice cultures, were used as previously described (Parker et al., 2017). De-identified patient information for these tumor samples are recorded in Table 4. […] Tumor cell viability within slices was not assessed, as the number of tumor cells embedded in each slice cannot be normalized between slices.

SMILES	Highest observed coefficient of Drug Interaction (CDI) in combination with IR (SK-LMS-1 cells)	Highest observed coefficient of Drug Interaction (CDI) in combination with IR (U87 cells)	Highest observed coefficient of Drug Interaction (CDI) in combination with IR (PC9 cells)	MDA levels (malondialdehyde (MDA))	Cleaved caspase-3, added to radiation (cleaved caspase-3)	Cleavage of caspase-3, compound alone (cleaved caspase-3)	ROS generation (H2DCFDA), combination with radiation vs control ([1]; 10 μM IKE, 2 Gy radiation, 24 hours, three responsive slice cultures)	ROS accumulation with IKE and radiation, ferrostatin-1 co-treatment ([1]; 10 μM ferrostatin-1)
CC(C)Oc1ccc(C(=O)Cn2ccnc2)cc1-n1c(CN2CCN(C(=O)COc3ccc(Cl)cc3)CC2)nc2ccccc2c1=O [IKE, imidazole ketone erastin]	0.48	0.65	0.70	significantly elevated	did not further increase the amount of cleaved caspase-3	did not induce detectable cleavage of caspase-3	significant enhancement of ROS generation	
COC(=O)c1ccc([C@@H]2c3[nH]c4ccccc4c3C[C@@H](C(=O)OC)N2C(=O)CCl)cc1 [RSL3, Ras Synthetic Lethal 3]	0.31	0.31	0.64		did not further increase the amount of cleaved caspase-3	did not induce detectable cleavage of caspase-3		
CCOC(=O)c1ccc(NC2CCCCC2)c(N)c1 [ferrostatin-1]				significantly lower levels of MDA				partially suppressible
